Assay results published in patent US4436662A, “Pyrrolo[3,4-d][2]benzazepinones” (Hoffmann-La Roche Inc., priority 1983, dated 1984).
Where two headings read alike, the source gives them in different places.

Columns and labels:
[1] = system: convulsions (metrazol iv); test: Intravenous Antimetrazol Test; format: in vivo, Male CF-1 mice; conditions: Mus musculus, po, 1 h
Method: Intravenous Antimetrazol Test
Brief Description: Male CF-1 mice, 45-54 days old, housed in facilities for one week and food-deprived for about 24 hours, are used in this test. The test compound, dispersed in 5% acacia, is administered orally to three mice at 1/10 the dose at which lethality occurred in the TSP testing. One hour later, metrazol is administered intravenously at 70 mg/kg (convulsant dose 100 mg/kg) and animals are observed 30 seconds for protection against convulsions. If the compound is active orally, 3 animals are used per dose level.
Measurements Made: The number of animals protected from convulsions.
Calculations: If the drug is active and three mice are used per dose level, the approximate ED50 is calculated by the method of Miller and Tainter (Proc. Soc. Exp. Biol. Med. 57:261, 1944). If six or more mice are used per dose level, the ED50 values and 95% fiducial limits are calculated using a computer program based on the method of D. J. Finney ("Probit Analysis", Cambridge University Press, Cambridge, England, 1971).

[2] = biological target: 3H-Diazepam binding, rat brain cortical fragments; test: 3H-Diazepam Binding Assay; conditions: read-out: IC50 (nM), concentration required to inhibit binding by 50%, Tris buffer, assayed in triplicate
Method: Brief-Description: Rat brain cortical fragments are prepared and the binding procedures performed as described by Mohler and Okada (Life Sciences, 20, 2101, 1977) except that Tris buffer is substituted for Krebs buffer. Drugs are assayed in triplicate.
Measurements Made: Radioactivity is measured by liquid scintillation counting.

[3] = LD50 (po) acute lethality; set-up: species or system mice; conditions: mouse, in vivo
[4] = standard drugs, read-out: ED50 (95% Fiducial Limits)
[5] = 1 hour before metrazol 70 mg/kg iv, 50% of animals protected from convulsive seizures, test compounds, read-out: ED50
[6] = mice, printed in binding results table
[7] = printed in antimetrazol results table

CCC1(c2ccccc2)C(=O)NC(=O)NC1=O [Sodium Phenobarbital]
ED50 [1, 4]: 19 mg/kg

CC1NC(=O)C2=C1c1ccc(Cl)cc1C(c1ccccc1Cl)=NC2 (centres unmarked) [8-Chloro-6-(2-chlorophenyl)-1,4-dihydro-1-methylpyrrolo[3,4-d][2]benzazepin-3(2H)-one]
ED50 [1, 5]: 0.08 mg/kg
IC50 [2]: 1 nM
LD50 [3, 6]: > 1000 mg/kg
LD50 [3, 7]: > 1000 mg/kg

CN1CC2=C(CN=C(c3ccccc3Cl)c3cc(Cl)ccc32)C1=O [8-chloro-6-(2-chlorophenyl)-1,4-dihydro-2-methylpyrrolo[3,4-d][2]benzazepin-3(2H)-one]
ED50 [1, 5]: 0.08 mg/kg
LD50 [3, 6]: 800 mg/kg
LD50 [3, 7]: 800 mg/kg

CCN(CC)CCN1C(=O)CN=C(c2ccccc2F)c2cc(Cl)ccc21 [Flurazepam, reference compound]
IC50 [2]: 15.6 nM

CNC1=Nc2ccc(Cl)cc2C(c2ccccc2)=[N+]([O-])C1 [Chlordiazepoxide]
ED50 [1, 4]: 3.9 mg/kg

CN1C(=O)CN=C(c2ccccc2)c2cc(Cl)ccc21 [Diazepam]
ED50 [1, 4]: 1 mg/kg
